Patent US20250296955A1, “PIN1 TARGETING COMPOUNDS AND DEGRADERS AND METHODS THEREOF” (The Regents of the University of California, priority 2024, published 2025)
Like-named read-outs stand apart in the source and are kept apart here. Blank lines part the entries; values can stand above or below the molecule they belong to. Where a SMILES comes first, the peptide text is derived from it. [ ]: non-standard residue; d: D form. The star is where a group is joined. Trp(6-Cl) = N[C@@H](Cc1c[nH]c2cc(Cl)ccc12)C(=O)O; Trp(5-OH) = N[C@@H](Cc1c[nH]c2ccc(O)cc12)C(=O)O; Phe(4-F) = N[C@@H](Cc1ccc(F)cc1)C(=O)O; 4Pal = N[C@@H](Cc1ccncc1)C(=O)O; Pip = O=C(O)[C@@H]1CCCCN1; ClAc = O=C(CCl)*

Columns and labels:
Pin1 [1] = molecular target: T1, Pin1 (Homo sapiens, UniProt Q13526); test: DELFIA displacement assay (displacement of biotinylated D-peptide from 6His-Pin1); format: binding; set-up: human Pin1 (residues 1-163); made in house; host or cells: E. coli BL21 (DE3) gold pLysS
Excerpt: (§1) Important to the success of structure activity relations studies, robust biochemical, biophysical, and cell-based assays were implemented that enabled rapid and iterative evaluations of test Pin1 targeting agents. First, the DELFIA (Dissociation-enhanced lanthanide fluorescent immunoassay) assay platform was used to derive a robust heterogeneous assay to monitor the ability of test agents to displace the binding between Pin1 and the D-Peptide (Table 1), which was obtained in a biotinylated form (FIG. 10). […] Second, for an orthogonal biophysical assay denaturation thermal shift measurements were used. Pin1 was incubated with vehicle control (buffer with 1% DMSO), or test agents at protein: ligand ratio of 1:2 (20 μM protein-40 μM compound) for 10 min at 10° C. in the presence of the fluorescent dye SYPRO Orange. The samples were gradually exposed to increasing temperature (linear gradient from 10° C. to 95° C.), causing the protein to unfold. This unfolding allowed the fluorescent dye to bind to the protein's exposed hydrophobic residues, resulting in an increase in fluorescence. The thermal shift assay measures the protein's melting temperature (Tm), which is the temperature at which the protein denatures by 50%. Ligands can affect a protein target to thermal denaturation, which could manifest in a positive or negative shift in the protein denaturation temperature (ΔTm) (Bai N, Roder H, Dickson A, & Karanicolas J (2019) Scientific Reports 9; and Kranz J K & Schalk-Hihi C (2011) Fragment-Based Drug Design: Tools, Practical Approaches, and Examples 493:277-298). Using these two assays, a series of commercially available Pin1 inhibitors were profiled (Table 1). The non-covalent agent D-peptide resulted only moderately active, with an IC50 value of ˜3 μM that closely resembled the dissociation constant for this agent determined via isothermal titration calorimetry, and the ˜ 3 μM IC50 value as reported by a fluorescence polarization assay (Pinch B J, et al. (2020) Nat Chem Biol 16(9):979-987). […] (Table 1) was observed.
For the reported covalent agents such as sulfopin (Dubiella C, et al. (2021) Nat Chem Biol 17(9):954-963), BJP-07-017-3 (Pinch B J, et al. (2020) Nat Chem Biol 16(9):979-987), or KPT-6566 (Campaner E, et al. (2017) Nat Commun 8:15772), a 6-h pre-incubation period was included in the DELFIA assay to allow the covalent reaction to take place. For those agents, IC50 values that fell in the low nanomolar range were observed, consistent with what was reported previously for those compounds. […] To make those determinations in a broader panel of cancer cell lines three pancreatic cancer cell lines, BxPC3, MIA-PaCa-2, and PANC-1, the breast cancer cell line MDA-MB-231, the prostate cancer cell line PC3, and the non-small cell lung cancer cell line A549 were chosen. Each cell line represents various states of KRAS activating mutations (for example BxPC3 is wt-KRAS, while MIAPaCa2 carries the KRAS(G12C) mutation, and the PANC-1 the KRAS(G12D) (Miquel M, Zhang S, & Pilarsky C (2021) Front Cell Dev Biol 9:748631), A549 is KRAS(G12S) (Wang H, et al. (2019) EBioMedicine 49:106-117), MDA-MB-231 is KRAS(G13D) (Kim R K, et al. (2015) Exp Mol Med 47(1):e137), PC3 is wt-KRAS (Bouali S, et al. (2009) Oncol Rep 21(3):731-735). Pin1 protein levels in these cell lines were established using a specific Pin1 antibody in western blot analyses (FIG. 1A). The data confirmed that all these selected human cancer cell lines expressed a significant level of Pin1 (FIG. 1A).
Each well of 96-well streptavidin-coated plates (PerkinElmer) was incubated with 100 μL of 200 nM biotinylated D-peptide for 2 h and washed 3 times with a wash solution (PerkinElmer). Subsequently, a mixture containing Pin1, and a serial dilution of the test compounds were pre-incubated for 6 h. Eu-N1-labeled anti-6x-His antibody (PerkinElmer, 1:2000) was then added to this mixture and further incubated in the biotinylated D-peptide-bound plates for another 2 h. […]

Pin1 [2] = molecular target: T1, Pin1; test: Denaturation thermal shift assay (SYPRO Orange); format: binding; set-up: human Pin1 (residues 1-163); made in house; host or cells: E. coli BL21 (DE3) gold pLysS
Excerpt: as §1
Thermal shift assays for Pin1 alone and in the presence of the inhibitors were obtained with a BioRad CFX Connect Real-Time PCR Detection System. Each data point was collected in quadruplicate. Each sample was prepared using buffer 50 mM Phosphate pH 7.5, 150 mM NaCl, 1% DMSO. Protein: ligand ratio used was 1:2 (20 μM protein-40 μM compound), and SYPRO Orange was used. Incubation of the Pin1 protein with the compounds was performed at 10° C. for 10 min. Samples were then heated from 10 to 95° C. with heating increments of 0.05° C., over 30 min. Fluorescence intensity was measured within the excitation/emission ranges 470-505/540-700 nm.

[3] = Table 4, two transitions observed, likely incomplete complex formation
[4] = Table 4, single transition, ± SE of four replicates
[5] = Table 3, single transition, ± SE of four replicates
[6] = Table 3, percentage in brackets after first ΔTm
[7] = Table 3, percentage in brackets after second ΔTm
[8] = Table 3, two peaks observed, likely incomplete complex formation

T1 sequence (Q13526 whole entry, the tested form may be a part): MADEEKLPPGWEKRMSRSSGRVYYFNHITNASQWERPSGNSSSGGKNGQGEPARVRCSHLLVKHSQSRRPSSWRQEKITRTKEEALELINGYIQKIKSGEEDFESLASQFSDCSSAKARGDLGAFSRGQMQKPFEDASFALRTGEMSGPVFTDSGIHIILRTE

Structure (SMILES): CC1(C)[C@H]2C[C@@H](C(=O)N[C@@H](Cc3c[nH]c4ccccc34)C(N)=O)N(C(=O)[C@@H]3Cc4c([nH]c5ccccc45)CN3C(=O)CCl)[C@H]21 [164A12]
IC50 (Pin1 [1]; Table 4, ± SD from duplicates): 0.044 ± 0.001 µM | share of first denaturation transition (Pin1 [2]; Table 4, percentage in brackets after first ΔTm): 30% | share of second denaturation transition (Pin1 [2]; Table 4, percentage in brackets after second ΔTm): 70% | ΔTm (° C.), first of two denaturation transitions (Pin1 [2]; [3]): +1.03 ± 0.13 °C | ΔTm (° C.), second printed of two denaturation transitions (Pin1 [2]; [3]): −19.18 ± 0.07 °C

Structure (SMILES): O=C(CCl)N[C@@H](Cc1ccccc1)C(=O)N1CCCC[C@H]1C(=O)NCCc1c[nH]c2cc(Cl)cc(Cl)c12 [158G6]
IC50 (Pin1 [1]; Table 3, ± SD from duplicates): 0.327 ± 0.018 µM | share of first thermal shift peak (Pin1 [2]; [6]): 70% | share of second thermal shift peak (Pin1 [2]; [7]): 30% | ΔTm (° C.), first of two peaks (Pin1 [2]; [8]): +1.04 ± 0.08 °C | ΔTm (° C.) (Pin1 [2]; Table 5, only one transition given): +1.04 ± 0.08 °C

Structure (SMILES): O=C(CCl)N[C@@H](Cc1ccccc1)C(=O)N1CCCC[C@H]1C(=O)NCCc1c[nH]c2ccc(F)cc12 [158G7]
IC50 (Pin1 [1]; Table 3, ± SD from duplicates): 1.04 ± 0.316 µM | share of first thermal shift peak (Pin1 [2]; [6]): 50% | share of second thermal shift peak (Pin1 [2]; [7]): 50% | ΔTm (° C.), first of two peaks (Pin1 [2]; [8]): −0.45 ± 0.15 °C | ΔTm (° C.), second printed of two peaks (Pin1 [2]; [8]): −14.28 ± 0.28 °C

Structure (SMILES): CN[C@@H](Cc1ccccc1)C(=O)N1CCCC[C@H]1C(=O)N[C@@H](Cc1c[nH]c2ccccc12)C(=O)N[C@@H](CCCNC(N)=O)C(N)=O [158B3] (HELM PEPTIDE1{[meF].[O=C([C@@H]1CCCCN1[*:1])[*:2]].W.[Cit].[am]}$$$$V2.0)
IC50 (Pin1 [1]): > 10 µM | IC50 (Pin1 [1]; Table 2, in μM): > 10 µM | ΔTm (° C.) (Pin1 [2]; Table 2, ± SE of four replicates): 0.62 ± 0.04 °C | ΔTm (Pin1 [2]; running text and figure legends): +0.62 °C

Structure (SMILES): Cc1cccc2c(C[C@H](NC(=O)[C@@H]3CCCCN3C(=O)[C@@H]3Cc4c([nH]c5ccccc45)CN3C(=O)CCl)C(N)=O)c[nH]c12 [164A11]
ΔTm (° C.) (Pin1 [2]; [4]): +10.45 ± 0.07 °C

The next lines start with the values.

IC50 (Pin1 [1]; Table 4, ± SD from duplicates): 0.056 ± 0.005 µM | ΔTm (° C.) (Pin1 [2]; [4]): −6.56 ± 0.04 °C
Structure (SMILES): NC(=O)[C@H](Cc1c[nH]c2ccccc12)NC(=O)[C@@H]1CCCCN1C(=O)[C@H](Cc1c[nH]c2ccc(O)cc12)NC(=O)CCl [158H3] (ClAc-[Trp(5-OH)]-[Pip]-Trp-NH2)

IC50 (Pin1 [1]; Table 3, ± SD from duplicates): 0.135 ± 0.001 µM | ΔTm (° C.) (Pin1 [2]; [5]): −9.99 ± 0.00 °C
Structure (SMILES): NC(=O)[C@H](Cc1c[nH]c2ccc(O)cc12)NC(=O)[C@@H]1CCCCN1C(=O)[C@H](Cc1ccccc1)NC(=O)CCl [158F9] (ClAc-Phe-[Pip]-[Trp(5-OH)]-NH2)

IC50 (Pin1 [1]; Table 3, ± SD from duplicates): 0.119 ± 0.006 µM | ΔTm (° C.) (Pin1 [2]; [5]): −9.29 ± 0.04 °C
Structure (SMILES): NC(=O)[C@H](Cc1c[nH]c2ccccc12)NC(=O)[C@@H]1CCCCN1C(=O)[C@H](Cc1ccc(O)cc1)NC(=O)CCl [158G5] (HELM PEPTIDE1{[O=C(CCl)[*:2]].Y.[O=C([C@@H]1CCCCN1[*:1])[*:2]].W.[am]}$$$$V2.0)

IC50 (Pin1 [1]; Table 3, ± SD from duplicates): 0.099 ± 0.004 µM | ΔTm (° C.) (Pin1 [2]; [5]): −9.18 ± 0.07 °C
Structure (SMILES): NC(=O)[C@H](Cc1c[nH]c2ccccc12)NC(=O)[C@@H]1CCCCN1C(=O)[C@H](Cc1ccncc1)NC(=O)CCl [158H1] (ClAc-[4Pal]-[Pip]-Trp-NH2)

IC50 (Pin1 [1]; Table 4, ± SD from duplicates): 0.031 ± 0.001 µM | ΔTm (° C.) (Pin1 [2]; [4]): −9.21 ± 0.08 °C
Structure (SMILES): NC(=O)[C@H](Cc1c[nH]c2cc(Cl)ccc12)NC(=O)[C@@H]1CCCCN1C(=O)[C@H](Cc1c[nH]c2ccccc12)NC(=O)CCl [158H12] (ClAc-Trp-[Pip]-[Trp(6-Cl)]-NH2)

IC50 (Pin1 [1]; Table 3, ± SD from duplicates): 0.146 ± 0.012 µM | ΔTm (° C.) (Pin1 [2]; [5]): −10.57 ± 0.11 °C
Structure (SMILES): NC(=O)[C@H](Cc1c[nH]c2ccccc12)NC(=O)[C@@H]1CCCCN1C(=O)[C@H](Cc1ccc(F)cc1)NC(=O)CCl [158G11] (ClAc-[Phe(4-F)]-[Pip]-Trp-NH2)
